Our source for the IC50 values is patent US9000029B2, “Proline sulfonamide derivatives as orexin receptor antagonists” (Actelion Pharmaceuticals Ltd., priority 2010, dated 2015).

For one assay, the target named is human orexin-1 receptor (Homo sapiens (Human), UniProt O43613). Description: Intracellular calcium measurements (FLIPR), antagonism of orexin-A response. Type of assay: cell-based. The conditions noted are these: CHO cells, 3 nM orexin-A, compound incubation 10 min; read-out: IC50 Ox1. Here is the method: (§1) In Vitro Assay: Intracellular Calcium Measurements:
(§2) Chinese hamster ovary (CHO) cells expressing the human orexin-1 receptor and the human orexin-2 receptor, respectively, are grown in culture medium (Ham F-12 with L-Glutamine) containing 300 μg/ml G418, 100 U/ml penicillin, 100 μg/ml streptomycin and 10% heat inactivated fetal calf serum (FCS). The cells are seeded at 20'000 cells/well into 384-well black clear bottom sterile plates (Greiner). The seeded plates are incubated overnight at 37° C. in 5% CO2.
(§3) Human orexin-A as an agonist is prepared as 1 mM stock solution in MeOH: water (1:1), diluted in HBSS containing 0.1% bovine serum albumin (BSA), NaHCO3: 0.375 g/l and 20 mM HEPES for use in the assay at a final concentration of 3 nM.
(§4) Antagonists are prepared as 10 mM stock solution in DMSO, then diluted in 384-well plates using DMSO followed by a transfer of the dilutions into in HBSS containing 0.1% bovine serum albumin (BSA), NaHCO3: 0.375 g/l and 20 mM HEPES. On the day of the assay, 50 μl of staining buffer (HBSS containing 1% FCS, 20 mM HEPES, NaHCO3: 0.375 g/l, 5 mM probenecid (Sigma) and 3 μM of the fluorescent calcium indicator fluo-4 AM (1 mM stock solution in DMSO, containing 10% pluronic) is added to each well. The 384-well cell-plates are incubated for 50 min at 37° C. in 5% CO2 followed by equilibration at RT for 30 min before measurement.
(§5) Within the Fluorescent Imaging Plate Reader (FLIPR Tetra, Molecular Devices), antagonists are added to the plate in a volume of 10 μl/well, incubated for 10 min or (where explicitly indicated) for 120 min and finally 10 μl/well of agonist is added. Fluorescence is measured for each well at 1 second intervals, and the height of each fluorescence peak is compared to the height of the fluorescence peak induced by 3 nM orexin-A with vehicle in place of antagonist. The IC50 value (the concentration of compound needed to inhibit 50% of the agonistic response) is determined and may be normalized using the obtained IC50 value of a on-plate reference compound. Optimized conditions were achieved by adjustment of pipetting speed and cell splitting regime. The calculated IC50 values may fluctuate depending on the daily cellular assay performance. Fluctuations of this kind are known to those skilled in the art.

The next assay has as its target human orexin-2 receptor (Homo sapiens (Human), UniProt O43614). Described as above. In kind it is cell-based. The following applies: CHO cells, 3 nM orexin-A, compound incubation 10 min; read-out: IC50 Ox2. Here is the method:
as §1, §2, §3, §4, §5

Chain of human orexin-1 receptor (O43613 whole entry): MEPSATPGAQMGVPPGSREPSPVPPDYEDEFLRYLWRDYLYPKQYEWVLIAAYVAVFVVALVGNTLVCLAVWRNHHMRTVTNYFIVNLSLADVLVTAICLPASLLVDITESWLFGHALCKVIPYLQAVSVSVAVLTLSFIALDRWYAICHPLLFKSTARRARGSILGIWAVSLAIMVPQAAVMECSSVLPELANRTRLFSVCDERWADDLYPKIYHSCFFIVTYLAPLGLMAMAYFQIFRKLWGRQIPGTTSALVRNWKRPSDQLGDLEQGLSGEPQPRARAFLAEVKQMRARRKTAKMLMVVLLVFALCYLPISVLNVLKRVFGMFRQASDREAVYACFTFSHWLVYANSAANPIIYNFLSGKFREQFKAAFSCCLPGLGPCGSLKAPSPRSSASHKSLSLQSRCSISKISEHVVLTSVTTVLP
Chain of human orexin-2 receptor (O43614 whole entry): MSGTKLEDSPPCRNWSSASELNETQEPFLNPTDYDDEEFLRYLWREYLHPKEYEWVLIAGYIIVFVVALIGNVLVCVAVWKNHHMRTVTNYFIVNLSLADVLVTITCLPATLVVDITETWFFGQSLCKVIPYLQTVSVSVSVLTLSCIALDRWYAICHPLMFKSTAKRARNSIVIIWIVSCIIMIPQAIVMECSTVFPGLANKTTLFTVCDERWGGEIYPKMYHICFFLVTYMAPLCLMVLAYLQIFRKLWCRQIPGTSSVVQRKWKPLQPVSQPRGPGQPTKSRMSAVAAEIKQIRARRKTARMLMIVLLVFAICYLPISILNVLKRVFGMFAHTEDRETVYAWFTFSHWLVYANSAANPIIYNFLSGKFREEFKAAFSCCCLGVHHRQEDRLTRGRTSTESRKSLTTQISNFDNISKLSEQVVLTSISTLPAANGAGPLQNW

Consider `CSc1cccc(NC(=O)[C@@H]2CCCN2S(=O)(=O)c2ccc(Br)s2)c1` [Example 1, (S)-1-(5-Bromo-thiophene-2-sulfonyl)-pyrrolidine-2-carboxylic acid (3-methylsulfanyl-phenyl)-amide], for which the IC50 on human orexin-1 receptor turned out to be 0.02 µM; on human orexin-2 receptor it was 0.01 µM.

Take `O=C(Nc1cccc(OC(F)(F)F)c1)[C@@H]1CCCN1S(=O)(=O)c1ccc(Br)s1` [Example 2, (S)-1-(5-Bromo-thiophene-2-sulfonyl)-pyrrolidine-2-carboxylic acid (3-trifluoromethoxy-phenyl)-amide]: the figures for the IC50 at human orexin-1 receptor and at human orexin-2 receptor were 0.149 µM and 0.104 µM, respectively.

Take `COc1cccc(S(=O)(=O)N2CCC[C@H]2C(=O)Nc2cccc(SC)c2)c1` [Example 3, (S)-1-(3-Methoxy-benzenesulfonyl)-pyrrolidine-2-carboxylic acid (3-methylsulfanyl-phenyl)-amide]: the figures for the IC50 on human orexin-1 receptor and on human orexin-2 receptor were 0.028 µM and 0.008 µM, respectively.

For the molecule `CCCc1ccc(S(=O)(=O)N2CCC[C@H]2C(=O)Nc2cccc(SC)c2)cc1` [Example 4, (S)-1-(4-Propyl-benzenesulfonyl)-pyrrolidine-2-carboxylic acid (3-methylsulfanyl-phenyl)-amide], the IC50 is 0.091 µM on human orexin-1 receptor and 0.047 µM on human orexin-2 receptor.

`CSc1cccc(NC(=O)[C@@H]2CCCN2S(=O)(=O)c2ccc3c(c2)OCCN3C)c1` [Example 5, (S)-1-(4-Methyl-3,4-dihydro-2H-benzo[1,4]oxazine-7-sulfonyl)-pyrrolidine-2-carboxylic acid (3-methylsulfanyl-phenyl)-amide]: the values for the IC50 on human orexin-1 receptor and at human orexin-2 receptor were 0.128 µM and 0.027 µM, respectively.

Take `COc1ccc(S(=O)(=O)N2CCC[C@H]2C(=O)Nc2cccc(SC)c2)cc1` [Example 6, (S)-1-(4-Methoxy-benzenesulfonyl)-pyrrolidine-2-carboxylic acid (3-methylsulfanyl-phenyl)-amide]: the IC50 at human orexin-1 receptor amounted to 0.021 µM; on human orexin-2 receptor it was 0.003 µM.

As for `CSc1cccc(NC(=O)[C@@H]2CCCN2S(=O)(=O)c2cccc(Cl)c2)c1` [Example 7, (S)-1-(3-Chloro-benzenesulfonyl)-pyrrolidine-2-carboxylic acid (3-methylsulfanyl-phenyl)-amide], the IC50 at human orexin-1 receptor stood at 0.008 µM; at human orexin-2 receptor, 0.002 µM.

On to `CSc1cccc(NC(=O)[C@@H]2CCCN2S(=O)(=O)c2ccc(C(F)(F)F)cc2)c1` [Example 8, (S)-1-(4-Trifluoromethyl-benzenesulfonyl)-pyrrolidine-2-carboxylic acid (3-methylsulfanyl-phenyl)-amide], for which the IC50 on human orexin-1 receptor was 0.063 µM; at human orexin-2 receptor, 0.017 µM.

Turning to `CSc1cccc(NC(=O)[C@@H]2CCCN2S(=O)(=O)c2ccc(Cl)cc2)c1` [Example 9, (S)-1-(4-Chloro-benzenesulfonyl)-pyrrolidine-2-carboxylic acid (3-methylsulfanyl-phenyl)-amide], the IC50 at human orexin-1 receptor was found to be 0.015 µM; at human orexin-2 receptor, 0.009 µM.

Regarding `COc1ccc(S(=O)(=O)N2CCC[C@H]2C(=O)Nc2cccc(SC)c2)cc1OC` [Example 10, (S)-1-(3,4-Dimethoxy-benzenesulfonyl)-pyrrolidine-2-carboxylic acid (3-methylsulfanyl-phenyl)-amide], the IC50 came out at 0.057 µM at human orexin-1 receptor and 0.003 µM at human orexin-2 receptor.

On to `CSc1cccc(NC(=O)[C@@H]2CCCN2S(=O)(=O)c2cccc(Br)c2)c1` [Example 11, (S)-1-(3-Bromo-benzenesulfonyl)-pyrrolidine-2-carboxylic acid (3-methylsulfanyl-phenyl)-amide], for which the results for the IC50 at human orexin-1 receptor and on human orexin-2 receptor were 0.007 µM and 0.002 µM, respectively.

In the case of `CSc1cccc(NC(=O)[C@@H]2CCCN2S(=O)(=O)c2ccc(C)c(Cl)c2)c1` [Example 12, (S)-1-(3-Chloro-4-methyl-benzenesulfonyl)-pyrrolidine-2-carboxylic acid (3-methylsulfanyl-phenyl)-amide], the IC50 at human orexin-1 receptor came out at 0.005 µM; at human orexin-2 receptor, 0.003 µM.

Regarding `CSc1cccc(NC(=O)[C@@H]2CCCN2S(=O)(=O)c2ccc(Br)cc2)c1` [Example 13, (S)-1-(4-Bromo-benzenesulfonyl)-pyrrolidine-2-carboxylic acid (3-methylsulfanyl-phenyl)-amide], the IC50 is 0.022 µM on human orexin-1 receptor and 0.01 µM on human orexin-2 receptor.

`CSc1cccc(NC(=O)[C@@H]2CCCN2S(=O)(=O)c2ccc(Cl)c(Cl)c2)c1` [Example 14, (S)-1-(3,4-Dichloro-benzenesulfonyl)-pyrrolidine-2-carboxylic acid (3-methylsulfanyl-phenyl)-amide]: the figures for the IC50 at human orexin-1 receptor and on human orexin-2 receptor were 0.007 µM and 0.002 µM, respectively.

For the molecule `O=C(Nc1ccccc1)[C@@H]1CCCN1S(=O)(=O)c1ccc(Br)s1` [Example 15, (S)-1-(5-Bromo-thiophene-2-sulfonyl)-pyrrolidine-2-carboxylic acid phenylamide], the IC50 on human orexin-1 receptor is 0.333 µM; at human orexin-2 receptor it was 0.164 µM.

For the molecule `COc1ccc(S(=O)(=O)N2CCC[C@H]2C(=O)Nc2cc(Cl)cc(Cl)c2)cc1` [Example 16, (S)-1-(4-Methoxy-benzenesulfonyl)-pyrrolidine-2-carboxylic acid (3,5-dichloro-phenyl)-amide], the results for the IC50 on human orexin-1 receptor and at human orexin-2 receptor were 0.064 µM and 0.02 µM, respectively.

Regarding `COc1ccc(S(=O)(=O)N2CCC[C@H]2C(=O)Nc2cccc(C(F)(F)F)c2)cc1` [Example 17, (S)-1-(4-Methoxy-benzenesulfonyl)-pyrrolidine-2-carboxylic acid (3-trifluoromethyl-phenyl)-amide], the IC50 at human orexin-1 receptor is 0.055 µM; on human orexin-2 receptor it was 0.009 µM.

For `COc1ccc(S(=O)(=O)N2CCC[C@H]2C(=O)Nc2cccc(Cl)c2)cc1` [Example 18, (S)-1-(4-Methoxy-benzenesulfonyl)-pyrrolidine-2-carboxylic acid (3-chloro-phenyl)-amide], the IC50 at human orexin-1 receptor stood at 0.083 µM; on human orexin-2 receptor it was 0.031 µM.

For the molecule `COc1ccc(S(=O)(=O)N2CCC[C@H]2C(=O)Nc2cccc(Br)c2)cc1` [Example 19, (S)-1-(4-Methoxy-benzenesulfonyl)-pyrrolidine-2-carboxylic acid (3-bromo-phenyl)-amide], the IC50 was determined as 0.079 µM on human orexin-1 receptor and 0.037 µM at human orexin-2 receptor.

With `COc1ccc(S(=O)(=O)N2CCC[C@H]2C(=O)Nc2cccc(C)c2)cc1` [Example 20, (S)-1-(4-Methoxy-benzenesulfonyl)-pyrrolidine-2-carboxylic acid m-tolylamide], the IC50 at human orexin-1 receptor stood at 0.214 µM; on human orexin-2 receptor, 0.017 µM.

In the case of `COc1ccc(S(=O)(=O)N2CCC[C@H]2C(=O)Nc2cccc(OC)c2)cc1` [Example 21, (S)-1-(4-Methoxy-benzenesulfonyl)-pyrrolidine-2-carboxylic acid (3-methoxy-phenyl)-amide], the figures for the IC50 at human orexin-1 receptor and on human orexin-2 receptor were 0.182 µM and 0.047 µM, respectively.

Consider `COc1ccc(S(=O)(=O)N2CCC[C@H]2C(=O)Nc2cccc(N(C)C)c2)cc1` [Example 22, (S)-1-(4-Methoxy-benzenesulfonyl)-pyrrolidine-2-carboxylic acid (3-dimethylamino-phenyl)-amide], for which the 50% inhibitory concentration (IC50) is 0.234 µM on human orexin-1 receptor and 0.019 µM at human orexin-2 receptor.

Consider `COc1ccc(S(=O)(=O)N2CCC[C@H]2C(=O)Nc2ccc(C)c(C)c2)cc1` [Example 23, (S)-1-(4-Methoxy-benzenesulfonyl)-pyrrolidine-2-carboxylic acid (3,4-dimethyl-phenyl)-amide], for which the values for the IC50 on human orexin-1 receptor and at human orexin-2 receptor were 0.174 µM and 0.029 µM, respectively.

In the case of `COc1ccc(S(=O)(=O)N2CCC[C@H]2C(=O)Nc2cccc3ccccc23)cc1` [Example 24, (S)-1-(4-Methoxy-benzenesulfonyl)-pyrrolidine-2-carboxylic acid naphthalen-1-ylamide], the IC50 at human orexin-1 receptor is 0.269 µM; on human orexin-2 receptor it was 0.171 µM.

Take `COc1ccc(S(=O)(=O)N2CCC[C@H]2C(=O)Nc2cccc(C#N)c2)cc1` [Example 25, (S)-1-(4-Methoxy-benzenesulfonyl)-pyrrolidine-2-carboxylic acid (3-cyano-phenyl)-amide]: the figures for the IC50 on human orexin-1 receptor and on human orexin-2 receptor were 0.994 µM and 0.098 µM, respectively.

As for `COc1ccc(S(=O)(=O)N2CCC[C@H]2C(=O)Nc2cc(OC)cc(OC)c2)cc1` [Example 27, (S)-1-(4-Methoxy-benzenesulfonyl)-pyrrolidine-2-carboxylic acid (3,5-dimethoxy-phenyl)-amide], the IC50 stood at 0.121 µM on human orexin-1 receptor and 0.016 µM at human orexin-2 receptor.
